Drawing on patent US8722683B2, “Benzodioxole piperazine compounds” (Hoffmann LA-Roche Inc., priority 2011, dated 2014), this text covers Ki and melting point for six molecules.

For one series, the target named is D3 receptor (Homo sapiens (Human), UniProt P35462). The series is described as follows: Radioligand binding ([3H]-spiperone) to cloned D3 receptor expressed in HEK-293 EBNA cells. To be noted: HEK293 EBNA membranes, 0.5 nM [3H]-spiperone.
The target of the next series is D2 receptor (Homo sapiens (Human), UniProt P14416). The experiment in a line: Radioligand binding ([3H]-spiperone) to cloned D2 receptor expressed in HEK-293 EBNA cells. The note with it: HEK293 EBNA membranes, 0.7 nM [3H]-spiperone.
The next series deals with 5-HT2A receptor (Homo sapiens (Human), UniProt P28223). The series is described as follows: Radioligand binding ([3H]-ketanserin) to cloned 5-HT2A receptor expressed in HEK-293 EBNA cells. How it is done: HEK293 EBNA cells were transiently transfected with expression plasmids encoding for the human D2 or D3 or for the human 5-HT2A receptor, respectively. The cells were harvested 48 h post-transfection, washed three times with cold PBS and stored at −80° C. prior to use. The pellet was suspended in cold 50 mM Tris-HCl buffer containing 10 mM EDTA (pH 7.4) and was homogenized with a Polytron (Kinematica AG, Basel, Switzerland) for 20-30 sec at 12.000 rpm. After centrifugation at 48.000×g for 30 min at 4° C., the pellet was resuspended in cold 10 mM Tris-HCl buffer containing 0.1 mM EDTA (pH 7.4), homogenized, and centrifuged as above. This pellet was further resuspended in a smaller volume of ice cold 10 mM Tris-HCl buffer containing 0.1 mM EDTA (pH 7.4) and homogenized with a Polytron for 20-30 sec at 12.000 rpm. The protein content of this homogenate was determined with the Bio-Rad (Bradford) Protein Assay (Biorad Laboratories GmbH, München, Germany) according to the instructions of the manufacturer using gamma globulin as the standard. This homogenate was stored at −80° C. in aliquots and thawed immediately prior to use.
Radioligand Binding Assay
Aliquots of membrane preparations were thawed at RT, resupended in assay buffer (D2, D3: 50 mM Tris-HCl, 120 mM NaCl, 5 mM MgCl2, 1 mM EDTA, 5 mM KCl, 1.5 mM CaCl2, pH=7.4; 5-HT2A: 50 mM Tris-HCl, 10 mM MgCl2, 1 mM EGTA, pH=7.4), homogenized with a Polytron for 20-30 sec at 12.000 rpm and adjusted to a final concentration of approximately 7.5 μg protein/well (D2, D3) and 15 μg protein/well (5-HT2A), respectively.
The binding affinity (Ki) of the compounds was determined using radioligand binding. […] The nonspecific binding was determined with equally composed reaction mixtures in the presence of 10 μM unlabelled spiperone. Per well 45 μl of Microscint 40 (Perkin Elmer, Schwerzenbach, Switzerland) was added, plates for sealed, shaken for 20 min and counted for 3 min on a Topcount Microplate Scintillation Counter (Canberra Packard SA, Zürich, Switzerland) with quenching correction.
The CPM value for each duplicate of a concentration of competing compound was averaged (y1), then the % specific binding was calculated according to the equation (((y1−non-specific)/(total binding−non-specific))×100). Graphs were plotted with the % specific binding using XLfit, a curve fitting program that iteratively plots the data using Levenberg-Marquardt algorithm. The single site competition analysis equation used was y=A+((B−A)/(1+((x/C)D))), where y is the % specific binding, A is the minimum y, B is the maximum y, C is the IC50, x is the log 10 of the concentration of the competing compound and D is the slope of the curve (the Hill Coefficient). […] The affinity constant (Ki) was calculated using the Cheng-Prusoff equation Ki=(IC50/1+([L]/Kd), where [L] is the concentration of radioligand and Kd is the dissociation constant of the radioligand at the receptor as determined by the saturation isotherm.

Broadly, the Ki is a measure of affinity in units of concentration, obtained from inhibition or displacement. High values mean weaker binding, low ones tighter binding. The melting point is the temperature, or range, at which the solid turns liquid.

Structures are written as SMILES.

D2 receptor, sequence (P14416 whole entry): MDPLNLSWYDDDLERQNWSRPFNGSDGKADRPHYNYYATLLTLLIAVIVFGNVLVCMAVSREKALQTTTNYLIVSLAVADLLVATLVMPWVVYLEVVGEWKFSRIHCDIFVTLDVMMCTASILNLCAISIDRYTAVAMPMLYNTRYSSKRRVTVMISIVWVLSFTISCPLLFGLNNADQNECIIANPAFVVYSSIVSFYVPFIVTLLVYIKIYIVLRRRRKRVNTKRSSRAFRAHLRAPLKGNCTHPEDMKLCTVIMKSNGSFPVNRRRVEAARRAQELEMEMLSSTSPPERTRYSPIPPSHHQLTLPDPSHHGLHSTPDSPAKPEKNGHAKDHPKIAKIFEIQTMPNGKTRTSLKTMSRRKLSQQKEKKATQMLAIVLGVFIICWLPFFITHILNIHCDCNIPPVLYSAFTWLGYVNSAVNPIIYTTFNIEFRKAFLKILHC
5-HT2A receptor, sequence (P28223 whole entry): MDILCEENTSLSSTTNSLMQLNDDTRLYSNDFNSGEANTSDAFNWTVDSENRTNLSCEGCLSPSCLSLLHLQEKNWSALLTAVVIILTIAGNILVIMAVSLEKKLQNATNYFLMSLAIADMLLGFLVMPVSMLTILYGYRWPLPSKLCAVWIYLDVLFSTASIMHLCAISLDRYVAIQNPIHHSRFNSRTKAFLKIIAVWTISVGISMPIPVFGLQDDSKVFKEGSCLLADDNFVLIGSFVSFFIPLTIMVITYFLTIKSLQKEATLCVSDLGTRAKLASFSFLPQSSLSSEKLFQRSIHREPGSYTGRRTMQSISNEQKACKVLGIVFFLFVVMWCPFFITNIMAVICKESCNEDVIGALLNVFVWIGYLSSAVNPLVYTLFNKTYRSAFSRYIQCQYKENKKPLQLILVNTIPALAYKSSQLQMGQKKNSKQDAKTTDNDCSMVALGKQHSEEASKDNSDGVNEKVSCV
D3 receptor, sequence (P35462 whole entry): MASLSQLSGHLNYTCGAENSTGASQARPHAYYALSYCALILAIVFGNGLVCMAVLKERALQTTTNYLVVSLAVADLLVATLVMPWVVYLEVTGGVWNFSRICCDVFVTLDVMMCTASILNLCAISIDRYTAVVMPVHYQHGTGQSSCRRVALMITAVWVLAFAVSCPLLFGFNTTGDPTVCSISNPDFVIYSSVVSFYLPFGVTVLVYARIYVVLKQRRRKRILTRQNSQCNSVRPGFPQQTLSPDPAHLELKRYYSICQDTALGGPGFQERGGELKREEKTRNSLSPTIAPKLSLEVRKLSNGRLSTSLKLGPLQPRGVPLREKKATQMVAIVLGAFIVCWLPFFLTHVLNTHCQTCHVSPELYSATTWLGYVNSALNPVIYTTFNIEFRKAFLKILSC

The molecule `O=C(CC1COC1)N[C@H]1CC[C@H](CCN2CCN(c3cccc4c3OCO4)CC2)CC1` [Example 22, Trans-N-{4-[2-(4-Benzo[1,3]dioxol-4-yl-piperazin-1-yl)-ethyl]-cyclohexyl}-2-oxetan-3-yl-acetamide] came in with a melting point of 190 °C. Besides, the affinity at D3 receptor, expressed as Ki, was 2.06 nM. For the same molecule, the inhibitory constant (Ki) at D2 receptor is 106 nM.
Consider `CCC(O)C(=O)N[C@H]1CC[C@H](CCN2CCN(c3cccc4c3OCO4)CC2)CC1` (stereo partly drawn) [Example 38, Trans-N-{4-[2-(4-Benzo[1,3]dioxol-4-yl-piperazin-1-yl)-ethyl]-cyclohexyl}-2-hydroxy-butyramide], for which the results for the Ki on 5-HT2A receptor, at D3 receptor and on D2 receptor were 25.8 nM, 12.5 nM and 122 nM, respectively.
With `CN(C)S(=O)(=O)N[C@H]1CC[C@H](CCN2CCN(c3cccc4c3OCO4)CC2)CC1` [Example 76, N-trans-{4-[2-(4-benzo[1,3]dioxol-4-yl-piperazin-1-yl)-ethyl]-cyclohexyl}-N,N-dimethyl-sulfamide], the figures for the inhibitory constant (Ki) on 5-HT2A receptor, on D3 receptor and on D2 receptor were 21.6 nM, 3.36 nM and 128 nM, respectively.
Turning to `CC(C)[C@@H](O)C(=O)N[C@H]1CC[C@H](CCN2CCN(c3cccc4c3OCO4)CC2)CC1` [Example 39, (R)-Trans-N-{4-[2-(4-Benzo[1,3]dioxol-4-yl-piperazin-1-yl)-ethyl]-cyclohexyl}-2-hydroxy-3-methyl-butyramide], the figures for the inhibition constant Ki at 5-HT2A receptor, on D3 receptor and at D2 receptor were 34.7 nM, 5.77 nM and 90.2 nM, respectively.
As to `COC1(C(=O)N[C@H]2CC[C@H](CCN3CCN(c4cccc5c4OCO5)CC3)CC2)CC1` [Example 62, 1-Methoxy-cyclopropanecarboxylic acid-trans-N-{4-[2-(4-benzo[1,3]dioxol-4-yl-piperazin-1-yl)-ethyl]-cyclohexyl}-amide], the inhibitory constant (Ki) on 5-HT2A receptor was found to be 6.27 nM; on D3 receptor, 14.3 nM; on D2 receptor it was 86.5 nM.
Taken in the same sequence, the figures for `O=C(N[C@H]1CC[C@H](CCN2CCN(c3cccc4c3OCO4)CC2)CC1)c1ccc2c(c1)OCCO2` [Example 49, 2,3-Dihydro-benzo[1,4]dioxine-6-carboxylic acid-trans-N-{4-[2-(4-benzo[1,3]dioxol-4-yl-piperazin-1-yl)-ethyl]-cyclohexyl}-amide] were 10.7 nM, 4.59 nM and 4820 nM.
